The results in this text go back to article PMC6023986, “Interactions Between Emodin and Efflux Transporters on Rat Enterocyte by a Validated Ussing Chamber Technique” (Frontiers in Pharmacology, 2018).

Where two headings read alike, the source gives them in different places.

For data set [1], the system named is P-gp. In words: Influence of emodin on P-gp function: digoxin bidirectional transport in the presence of emodin (Ussing chamber). The format is in vitro ADME. The following applies: rat jejunum; for Papp at 25 μM: rat. An excerpt: (§1) The four intestinal segments including duodenum, jejunum, ileum, and colon from anesthetized rats were immediately removed by surgery and washed with KRB solution. Each section of the intestinal segments was then placed in cold (on ice), bubbled (O2:CO2 95:5) KRB buffer. The four intestinal segments were then cut into 2 cm pieces, respectively, and serosas were removed by blunt dissection. Peyer’s patches were excluded from the experiment by visually identified. The stripped tissues were mounted in chambers with exposed surface area of 0.49 cm^2. Temperature of the chambers was maintained at 37 ± 0.5°C. Each of the half-cells in the chambers was filled with 5 mL fresh KRB buffer (pH 6.5). Tissue viability was continuously controlled by potential difference (PD). Tissue with electrical values less than 2 mV was refused ([Moazed and Hiebert, 2007]; [Heinen et al., 2013]).
In this study, the effects of the three efflux transporters on emodin intestinal absorption were investigated. Meanwhile, the influence of emodin on intestinal P-gp, MRP2, and MRP3 functions were also discussed. Solutions with three concentrations (low, middle, and high) of emodin were filled in the mucosal or serosal compartment to measure the bidirectional transport characteristic. […] In the emodin impact experiments, digoxin, pravastatin, and teniposide were employed as P-gp, MRP2, and MRP3 substrates. Changes of the bidirectional transport characteristic were measured before and after adding emodin to the mucosal side.
(§2) Frozen samples were adequately vortexed after thawing at the room temperature; 10 μL suitable IS solution was added to 200 μL samples; 200 μL methanol was added after a thorough vortex mixing for 30 s. The mixtures were then vortexed for 30 s and centrifuged at 15,000 rpm for 30 min. Finally, 5 μL of supernatant was injected into the LC-MS/MS system.
(§3) The quantifications of the compounds were performed by the TSQ Quantum Ultra Triple Quadrupole LC-MS/MS system from Thermo Fisher Scientific. Chromatography was carried out using an Agilent Poroshell 120 SB-C18 (2.7 μm, 2.1 mm × 100 mm) column with a Phenomenex AFO-8497 C18 pre-column, operating at 30°C. Adaptive gradient elution methods were applied for the analytes. The flow rate of the mobile phase was kept at 0.2 mL min^-1. Flow was directed to the ion spray interface. All measurements were carried out in negative ESI mode. Ion spray voltage was -2500 V. Vaporizer and capillary temperatures were set at 250 and 350°C, respectively. Auto sampler temperature was set at 10°C. Sheath gas and aux gas were set at 30 and 15 Arb, respectively. […] Peak integrations and calibrations were carried out using LC Quan 2.5.2 software from Thermo Fisher Scientific.
(§4) The Q (accumulative quantity), Papp (apparent permeability), Er (efflux ratio), Pr (Papp ratio), and Err (Er ratio) across the excited rat intestinal segments in the Ussing chamber were calculated using the following equations ([Li et al., 2012]; [Huang et al., 2016]): […]
(§5) where Cn (nM) is the concentration of the drug at the time point (n), Q (nM) is the accumulated absorption amount, A is the exposed surface area of the intestine (0.49 cm^2), dQ/dt (nM⋅s^-1) is the amount of the drug transported, and C0 (nM) is the initial concentration of the test drug. Experiments were performed in batches, so control groups were set as one for each batch.

The subject of data set [2] is P-gp. Description: in vitro. Conditions: rat.
Description: The quantifications of the compounds were performed by the TSQ Quantum Ultra Triple Quadrupole LC-MS/MS system from Thermo Fisher Scientific. […] Adaptive gradient elution methods were applied for the analytes. The flow rate of the mobile phase was kept at 0.2 mL min^-1. Flow was directed to the ion spray interface. All measurements were carried out in negative ESI mode. Ion spray voltage was -2500 V. Vaporizer and capillary temperatures were set at 250 and 350°C, respectively. Auto sampler temperature was set at 10°C. Sheath gas and aux gas were set at 30 and 15 Arb, respectively. […] Peak integrations and calibrations were carried out using LC Quan 2.5.2 software from Thermo Fisher Scientific.
A further data set deals with MRP2 (Rattus norvegicus, UniProt Q63120). In words: Ussing chamber bidirectional transport, model validation for MRP2 (pravastatin substrate, MK571 inhibitor). Format: in vitro ADME. Conditions: jejunum and ileum, MK571 186 μM, pravastatin as substrate. On the set-up: intestinal segments including duodenum, jejunum, ileum, and colon from anesthetized rats were immediately removed by surgery; from tissue; host or cells: stripped rat intestine (jejunum and ileum in validation; jejunum for the emodin studies).
Description: as §1, with “(PD).” for “(PD). Tissue with electrical values less than 2 mV was refused ([Moazed and Hiebert, 2007]; [Heinen et al., 2013]).”
(§6) Digoxin, pravastatin, and teniposide were employed as the test substrates of P-gp, MRP2, and MRP3. […] The experiments were started after 30 min equilibration time, by changing the KRB buffer on both sides; 5 mL KRB solution with different test compounds was filled in the mucosal or serosal compartment; meanwhile, equal volume fresh buffer was added to the other compartment. […] The bidirectional transport studies with specific inhibitors were assessed to validate this model whether or not suitable for P-gp, MRP2, and MRP3 studies.
as §2
as §3, with “Chromatography was carried out using an Agilent Poroshell 120 SB-C18 (2.7 μm, 2.1 mm × 100 mm) column with a Phenomenex AFO-8497 C18 pre-column, operating at 30°C.” left out
as §5

The next data set concerns the target T1, MRP3 (Rattus norvegicus, UniProt O88563).
T1 construct: intestinal segments including duodenum, jejunum, ileum, and colon from anesthetized rats were immediately removed by surgery; from tissue; host or cells: stripped rat intestine (jejunum and ileum in validation; jejunum for the emodin studies)
In words: Ussing chamber bidirectional transport, model validation for MRP3 (teniposide substrate, benzbromarone inhibitor). The following applies: jejunum and ileum, benzbromarone 470 μM, teniposide as substrate. The format is in vitro ADME.
Description: as §1
as §6, with “studies. Samples were stored at –80°C until analysis ([Deusser et al., 2013]).” for “studies.”
as §2, §3, §4, §5

T1 sequence (O88563 whole entry): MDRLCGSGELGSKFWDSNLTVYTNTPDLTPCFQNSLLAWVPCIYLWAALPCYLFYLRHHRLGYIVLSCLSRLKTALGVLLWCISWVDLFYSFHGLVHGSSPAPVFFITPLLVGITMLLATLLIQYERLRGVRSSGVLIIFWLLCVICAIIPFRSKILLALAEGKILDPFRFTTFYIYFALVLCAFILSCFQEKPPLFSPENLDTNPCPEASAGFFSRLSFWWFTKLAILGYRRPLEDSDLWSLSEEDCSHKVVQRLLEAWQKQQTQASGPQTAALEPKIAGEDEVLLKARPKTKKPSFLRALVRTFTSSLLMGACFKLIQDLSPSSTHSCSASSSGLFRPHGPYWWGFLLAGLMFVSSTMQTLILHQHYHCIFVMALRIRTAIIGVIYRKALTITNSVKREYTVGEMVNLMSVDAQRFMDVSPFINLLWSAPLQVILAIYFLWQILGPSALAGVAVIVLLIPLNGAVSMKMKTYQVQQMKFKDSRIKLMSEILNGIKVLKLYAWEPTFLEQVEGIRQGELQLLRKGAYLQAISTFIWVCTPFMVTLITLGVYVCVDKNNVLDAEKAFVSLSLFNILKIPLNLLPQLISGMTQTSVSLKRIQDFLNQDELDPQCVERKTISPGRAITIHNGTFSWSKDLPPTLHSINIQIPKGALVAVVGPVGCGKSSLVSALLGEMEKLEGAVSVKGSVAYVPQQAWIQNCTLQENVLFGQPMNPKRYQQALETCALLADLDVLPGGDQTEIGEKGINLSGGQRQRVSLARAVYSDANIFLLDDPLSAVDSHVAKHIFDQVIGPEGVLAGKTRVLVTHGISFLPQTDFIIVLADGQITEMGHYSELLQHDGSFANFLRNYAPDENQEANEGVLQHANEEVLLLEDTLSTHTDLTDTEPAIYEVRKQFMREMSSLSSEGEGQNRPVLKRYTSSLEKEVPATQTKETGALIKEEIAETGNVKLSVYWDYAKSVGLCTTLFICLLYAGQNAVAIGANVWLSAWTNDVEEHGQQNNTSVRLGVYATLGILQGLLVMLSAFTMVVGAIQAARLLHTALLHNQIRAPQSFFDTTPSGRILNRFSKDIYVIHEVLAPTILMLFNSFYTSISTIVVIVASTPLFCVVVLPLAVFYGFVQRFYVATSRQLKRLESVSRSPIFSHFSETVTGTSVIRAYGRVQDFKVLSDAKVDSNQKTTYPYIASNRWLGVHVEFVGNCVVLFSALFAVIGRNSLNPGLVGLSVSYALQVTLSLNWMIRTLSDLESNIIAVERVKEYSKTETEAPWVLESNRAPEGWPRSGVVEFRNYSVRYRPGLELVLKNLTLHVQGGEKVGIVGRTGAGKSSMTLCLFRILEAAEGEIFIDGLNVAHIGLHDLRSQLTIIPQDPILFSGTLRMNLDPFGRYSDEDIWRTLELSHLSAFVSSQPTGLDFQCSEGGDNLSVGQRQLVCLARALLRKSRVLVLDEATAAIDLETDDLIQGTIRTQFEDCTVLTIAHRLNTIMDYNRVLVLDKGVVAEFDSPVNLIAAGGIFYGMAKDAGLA
Chain of MRP2 (Q63120 whole entry, the tested form may be a part): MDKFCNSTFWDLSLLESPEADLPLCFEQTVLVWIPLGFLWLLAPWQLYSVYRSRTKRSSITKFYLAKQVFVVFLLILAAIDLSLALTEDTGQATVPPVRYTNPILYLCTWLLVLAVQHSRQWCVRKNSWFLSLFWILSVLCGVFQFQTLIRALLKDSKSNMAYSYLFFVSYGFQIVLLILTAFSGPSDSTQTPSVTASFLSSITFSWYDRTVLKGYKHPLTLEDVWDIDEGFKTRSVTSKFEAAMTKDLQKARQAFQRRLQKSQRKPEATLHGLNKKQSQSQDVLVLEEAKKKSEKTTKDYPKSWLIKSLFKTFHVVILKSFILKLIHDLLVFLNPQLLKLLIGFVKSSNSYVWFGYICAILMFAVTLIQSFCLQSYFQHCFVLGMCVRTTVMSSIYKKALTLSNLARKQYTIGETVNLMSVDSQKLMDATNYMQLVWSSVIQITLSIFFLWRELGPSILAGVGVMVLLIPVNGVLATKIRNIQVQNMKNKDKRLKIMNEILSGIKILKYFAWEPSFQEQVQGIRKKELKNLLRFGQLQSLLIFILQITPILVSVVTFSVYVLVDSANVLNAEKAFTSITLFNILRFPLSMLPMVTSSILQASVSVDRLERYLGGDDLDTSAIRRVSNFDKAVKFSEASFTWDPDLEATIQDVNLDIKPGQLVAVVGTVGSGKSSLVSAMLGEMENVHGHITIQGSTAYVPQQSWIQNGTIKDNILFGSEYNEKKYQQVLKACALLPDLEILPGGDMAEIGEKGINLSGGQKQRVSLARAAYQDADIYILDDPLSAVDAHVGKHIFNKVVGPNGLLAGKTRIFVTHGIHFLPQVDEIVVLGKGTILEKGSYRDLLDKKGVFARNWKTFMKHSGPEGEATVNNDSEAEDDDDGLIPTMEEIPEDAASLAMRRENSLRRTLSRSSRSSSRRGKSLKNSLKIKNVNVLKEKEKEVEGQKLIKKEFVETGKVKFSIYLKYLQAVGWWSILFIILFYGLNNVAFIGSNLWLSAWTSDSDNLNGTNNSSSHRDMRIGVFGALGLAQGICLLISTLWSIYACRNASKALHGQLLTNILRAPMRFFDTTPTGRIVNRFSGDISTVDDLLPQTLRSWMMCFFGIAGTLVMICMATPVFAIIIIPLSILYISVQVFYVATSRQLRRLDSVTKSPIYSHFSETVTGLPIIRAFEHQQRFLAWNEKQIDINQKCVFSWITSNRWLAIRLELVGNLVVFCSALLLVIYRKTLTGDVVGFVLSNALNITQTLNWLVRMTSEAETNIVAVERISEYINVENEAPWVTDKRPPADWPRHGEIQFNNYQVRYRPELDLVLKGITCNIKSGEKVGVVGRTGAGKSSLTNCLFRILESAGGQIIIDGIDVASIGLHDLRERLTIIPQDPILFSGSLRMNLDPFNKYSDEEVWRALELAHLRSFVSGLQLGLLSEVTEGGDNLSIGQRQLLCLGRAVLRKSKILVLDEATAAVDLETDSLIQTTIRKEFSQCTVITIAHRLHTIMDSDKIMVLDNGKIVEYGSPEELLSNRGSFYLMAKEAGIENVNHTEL

As to `C[C@H]1O[C@@H](O[C@H]2[C@@H](O)C[C@H](O[C@H]3[C@@H](O)C[C@H](O[C@H]4CC[C@@]5(C)[C@H](CC[C@@H]6[C@@H]5C[C@@H](O)[C@]5(C)[C@@H](C7=CC(=O)OC7)CC[C@]65O)C4)O[C@@H]3C)O[C@@H]2C)C[C@H](O)[C@@H]1O` [Digoxin], in the data set on P-gp [1] (digoxin 25 μM, emodin 185, 370, 740 μM), the “Change of Er values of digoxin after adding emodin” value is “significant higher”. The apparent permeability (Papp) at 25 μM in the data set on P-gp [1] (pH 6.5, digoxin 25 μM, without emodin, read-out: Papp M-S, control) stood at 91.6 ± 41 ×10⁻⁶ cm/s; in the data set with P-gp [1] (pH 6.5, digoxin 25 μM, without emodin, read-out: Papp S-M, control) it was 152 ± 43.9 ×10⁻⁶ cm/s; in the data set with P-gp [1] (pH 6.5, with emodin 185 μM on mucosal side, digoxin 25 μM, emodin 185 μM on mucosal side, read-out: Papp M-S in the presence of emodin) it was 55.8 ± 29.8 ×10⁻⁶ cm/s; in the data set with P-gp [1] (pH 6.5, with emodin 185 μM on mucosal side, digoxin 25 μM, emodin 185 μM on mucosal side, read-out: Papp S-M in the presence of emodin), 257 ± 47.6 ×10⁻⁶ cm/s; in the data set with P-gp [1] (pH 6.5, with emodin 370 μM on mucosal side, digoxin 25 μM, emodin 370 μM on mucosal side, read-out: Papp M-S in the presence of emodin) it was 49 ± 12.8 ×10⁻⁶ cm/s; in the data set on P-gp [1] (pH 6.5, with emodin 370 μM on mucosal side, digoxin 25 μM, emodin 370 μM on mucosal side, read-out: Papp S-M in the presence of emodin) it was 461 ± 191 ×10⁻⁶ cm/s. Moreover, the Papp at 25 μM came to 20.4 ± 7.6 ×10⁻⁶ cm/s with P-gp [1] (pH 6.5, with emodin 740 μM on mucosal side, digoxin 25 μM, emodin 740 μM on mucosal side, read-out: Papp M-S in the presence of emodin) and 142 ± 29.7 ×10⁻⁶ cm/s in the data set on P-gp [1] (pH 6.5, with emodin 740 μM on mucosal side, digoxin 25 μM, emodin 740 μM on mucosal side, read-out: Papp S-M in the presence of emodin). Moreover, the Papp was 63.1 ± 33.1 ×10⁻⁶ cm/s in the data set with P-gp [2] (pH 6.5, Papp M-S, control, rat colon, without inhibitor); 72.5 ± 32.8 ×10⁻⁶ cm/s with P-gp [2] (pH 6.5, Papp M-S, control, rat duodenum, without inhibitor); 43.1 ± 15 ×10⁻⁶ cm/s with P-gp [2] (pH 6.5, Papp M-S, control, rat ileum, without inhibitor); 57.8 ± 11.2 ×10⁻⁶ cm/s in the data set with P-gp [2] (pH 6.5, Papp M-S, control, rat jejunum, without inhibitor); 137 ± 66.3 ×10⁻⁶ cm/s in the data set on P-gp [2] (pH 6.5, Papp S-M, control, rat colon, without inhibitor); 186 ± 144 ×10⁻⁶ cm/s in the data set with P-gp [2] (pH 6.5, Papp S-M, control, rat duodenum, without inhibitor). Further, the Papp amounted to 228 ± 136 ×10⁻⁶ cm/s in the data set on P-gp [2] (pH 6.5, Papp S-M, control, rat ileum, without inhibitor); 270 ± 125 ×10⁻⁶ cm/s in the data set with P-gp [2] (pH 6.5, Papp S-M, control, rat jejunum, without inhibitor); 45.3 ± 23.2 ×10⁻⁶ cm/s with P-gp [2] (pH 6.5, with verapamil 220 μM, mucosal side, Papp M-S, with inhibitor, rat duodenum, with verapamil 220 μM on mucosal side); 191 ± 90.5 ×10⁻⁶ cm/s with P-gp [2] (pH 6.5, with verapamil 220 μM, mucosal side, Papp M-S, with inhibitor, rat ileum, with verapamil 220 μM on mucosal side); 119 ± 58.5 ×10⁻⁶ cm/s in the data set with P-gp [2] (pH 6.5, with verapamil 220 μM, mucosal side, Papp M-S, with inhibitor, rat jejunum, with verapamil 220 μM on mucosal side); 79.7 ± 32.2 ×10⁻⁶ cm/s in the data set on P-gp [2] (pH 6.5, with verapamil 220 μM, mucosal side, Papp S-M, with inhibitor, rat duodenum, with verapamil 220 μM on mucosal side). The Papp with P-gp [2] (pH 6.5, with verapamil 220 μM, mucosal side, Papp S-M, with inhibitor, rat ileum, with verapamil 220 μM on mucosal side) is 157 ± 108 ×10⁻⁶ cm/s; with P-gp [2] (pH 6.5, with verapamil 220 μM, mucosal side, Papp S-M, with inhibitor, rat jejunum, with verapamil 220 μM on mucosal side), 96.4 ± 86.4 ×10⁻⁶ cm/s; in the data set on P-gp [2] (pH 6.5, with verapamil 440 μM, mucosal side, Papp M-S, with inhibitor, rat colon, with verapamil 440 μM on mucosal side) it was 189 ± 34.3 ×10⁻⁶ cm/s; in the data set on P-gp [2] (pH 6.5, with verapamil 440 μM, mucosal side, Papp S-M, with inhibitor, rat colon, with verapamil 440 μM on mucosal side), 191 ± 40.1 ×10⁻⁶ cm/s.
For `CN(C)C(=O)CCSC(SCCC(=O)O)c1cccc(/C=C/c2ccc3ccc(Cl)cc3n2)c1` (stereo not drawn) [MK571], the “Inhibition effect on MRP2” value on MRP2 is reported as “significant inhibition effect”.
For `CCc1oc2ccccc2c1C(=O)c1cc(Br)c(O)c(Br)c1` [Benzbromarone], at MRP3, the “Inhibition effect on MRP3” value is on record as “significant inhibition effect”.
